# Measured values taken from US12679824B2 (Hoffmann-La Roche Inc., priority 2020, dated 2026).
# Tested on: Acinetobacter baumannii ATCC17961
# Assay: 90% Growth Inhibitory Concentration (IC90) determination, antimicrobial susceptibility testing
# Assay type: cell-based
# Details: Acinetobacter baumannii, ATCC17961, 16 h, Acinetobacter baumannii ATCC17961; Iso-Sensitest broth; growth by optical density at 600 nm over 16h; concentration inhibiting 90% of the growth; read-out: ATCC 17961 IC90
# Method in brief: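 Broth microdilution in Iso-Sensitest medium, compounds twofold diluted (e.g. 50–0.097 μM final), inoculum ~5×10^(5) CFU/ml, 35±2° C. OD600 was read every 20 min over 16 h. IC90 was derived from growth inhibition during logarithmic growth.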
row,Structure (SMILES),IC90 [nM]
1,"Cn1c(-c2cn(-c3ccc(N)nc3)nc2C(F)(F)F)cnc1C(=O)Nc1ccc(C(=O)N2CCN(C(=O)C3CCNCC3)CC2)c(Cl)c1 [Example Z10, 5-[1-(6-amino-3-pyridyl)-3-(trifluoromethyl)pyrazol-4-yl]-N-[3-chloro-4-(4-isonipecotoylpiperazine-1-carbonyl)phenyl]-1-methyl-imidazole-2-carboxamide]",330
2,"Cn1c(-c2cn(-c3ccc(N)cn3)nc2C(F)(F)F)cnc1C(=O)Nc1ccc(C(=O)NCC2CC2N)c(Cl)c1 (stereo not shown) [Example Z18, N-[4-[(2-aminocyclopropyl)methylcarbamoyl]-3-chloro-phenyl]-5-[1-(5-amino-2-pyridyl)-3-(trifluoromethyl)pyrazol-4-yl]-1-methyl-imidazole-2-carboxamide]",1590
3,"Cn1c(-c2cn(-c3ccc(N)cn3)nc2C(F)(F)F)cnc1C(=O)Nc1ccc(C(=O)N2CCC(C(=O)N3CCNC(CO)C3)CC2)c(Cl)c1 (stereo not shown) [Example H2, 5-[1-(5-amino-2-pyridyl)-3-(trifluoromethyl)pyrazol-4-yl]-N-[3-chloro-4-[4-[3-(hydroxymethyl)piperazine-1-carbonyl]piperidine-1-carbonyl]phenyl]-1-methyl-imidazole-2-carboxamide]",880
4,"Cn1c(-c2cn(-c3ncc(NCCN)cn3)nc2C(F)(F)F)cnc1C(=O)Nc1ccc(C(=O)N2CCN(C(=O)C3CCNCC3)CC2)c(Cl)c1 [Example B2, 5-[1-[5-(2-aminoethylamino)pyrimidin-2-yl]-3-(trifluoromethyl)pyrazol-4-yl]-N-[3-chloro-4-[4-(piperidine-4-carbonyl)piperazine-1-carbonyl]phenyl]-1-methyl-imidazole-2-carboxamide]",170
5,"Cn1c(-c2cn(-c3ccc(N)cn3)nc2C(F)(F)F)cnc1C(=O)Nc1ccc(C(=O)N2CC3(CC(NC(=O)[C@@H]4C[C@@H](O)CN4)C3)C2)c(Cl)c1 [Example Z25, 5-[1-(5-amino-2-pyridyl)-3-(trifluoromethyl)pyrazol-4-yl]-N-[3-chloro-4-[6-[[(2S,4R)-4-hydroxyprolyl]amino]-2-azaspiro[3.3]heptane-2-carbonyl]phenyl]-1-methyl-imidazole-2-carboxamide]",540
6,"Cn1c(-c2cn(-c3ccc(N)cn3)nc2C(F)(F)F)cnc1C(=O)Nc1ccc(C(=O)NCCCN)c(Cl)c1 [Example Z2, N-[4-(3-aminopropylcarbamoyl)-3-chloro-phenyl]-5-[1-(5-amino-2-pyridyl)-3-(trifluoromethyl)pyrazol-4-yl]-1-methyl-imidazole-2-carboxamide]",980
7,"Cn1c(-c2cn(-c3ccncc3)nc2C(F)(F)F)cnc1C(=O)Nc1ccc(C(=O)N2CCN(C(=O)C3CCNCC3)CC2)c(Cl)c1 [Example A2, N-[3-chloro-4-[4-(piperidine-4-carbonyl)piperazine-1-carbonyl]phenyl]-1-methyl-5-[1-(4-pyridyl)-3-(trifluoromethyl)pyrazol-4-yl]imidazole-2-carboxamide]",710
8,"COCCNc1ccnc(-n2cc(-c3cnc(C(=O)Nc4ccc(C(=O)N5CCN(C(=O)C6CCNCC6)CC5)c(Cl)c4)n3C)c(C(F)(F)F)n2)n1 [Example A19, N-[3-chloro-4-[4-(piperidine-4-carbonyl)piperazine-1-carbonyl]phenyl]-5-[1-[4-(2-methoxyethylamino)pyrimidin-2-yl]-3-(trifluoromethyl)pyrazol-4-yl]-1-methyl-imidazole-2-carboxamide]",1200
9,"COCCOc1cnc(-n2cc(-c3cnc(C(=O)Nc4ccc(C(=O)N5CCN(C(=O)C6CCNCC6)CC5)c(Cl)c4)n3C)c(C(F)(F)F)n2)nc1 [Example A6, N-[3-chloro-4-[4-(piperidine-4-carbonyl)piperazine-1-carbonyl]phenyl]-5-[1-[5-(2-methoxyethoxy)pyrimidin-2-yl]-3-(trifluoromethyl)pyrazol-4-yl]-1-methyl-imidazole-2-carboxamide]",540
10,"Cc1[nH]ncc1-n1cc(-c2cnc(C(=O)Nc3ccc(C(=O)N4CCN(C(=O)C5CCNCC5)CC4)c(Cl)c3)n2C)c(C(F)(F)F)n1 [Example E5, N-[3-chloro-4-[4-(piperidine-4-carbonyl)piperazine-1-carbonyl]phenyl]-1-methyl-5-[1-(5-methyl-1H-pyrazol-4-yl)-3-(trifluoromethyl)pyrazol-4-yl]imidazole-2-carboxamide]",1400
11,"CNc1ccc(-n2cc(-c3cnc(C(=O)Nc4ccc(C(=O)N5CCN(C(=O)C6CCNCC6)CC5)c(C)c4)n3C)c(C(F)(F)F)n2)nc1 [Example D6, 1-methyl-5-[1-[5-(methylamino)-2-pyridyl]-3-(trifluoromethyl)pyrazol-4-yl]-N-[3-methyl-4-[4-(piperidine-4-carbonyl)piperazine-1-carbonyl]phenyl]imidazole-2-carboxamide]",370
12,"Cn1c(-c2cn(-c3ccc(N)cn3)nc2C(F)(F)F)cnc1C(=O)Nc1ccc(C(=O)N2C3CNCC2C3)c(Cl)c1 [Example Z55, 5-[1-(5-amino-2-pyridyl)-3-(trifluoromethyl)pyrazol-4-yl]-N-[3-chloro-4-(3,6-diazabicyclo[3.1.1]heptane-6-carbonyl)phenyl]-1-methyl-imidazole-2-carboxamide]",340

# The next lines start with the values.
row,IC90 [nM],Structure (SMILES)
1,700,"C[C@H]1CN(C(=O)c2ccc(NC(=O)c3ncc(-c4cn(-c5ccc(N)cn5)nc4C(F)(F)F)n3C)cc2Cl)CCN1 [Example Z61, 5-[1-(5-amino-2-pyridyl)-3-(trifluoromethyl)pyrazol-4-yl]-N-[3-chloro-4-[(3S)-3-methylpiperazine-1-carbonyl]phenyl]-1-methyl-imidazole-2-carboxamide]"
2,660,"Cn1c(-c2cn(-c3ccc(N)cn3)nc2C(F)(F)F)cnc1C(=O)Nc1ccc(C(=O)N[C@H]2C[C@H](NC(=O)[C@@H]3C[C@@H](O)CN3)C2)c(Cl)c1 [Example Z38, 5-[1-(5-amino-2-pyridyl)-3-(trifluoromethyl)pyrazol-4-yl]-N-[3-chloro-4-[trans-[3-[[(2S,4R)-4-hydroxyprolyl]amino]cyclobutyl]carbamoyl]phenyl]-1-methyl-imidazole-2-carboxamide]"
3,310,"Cn1c(-c2cn(-c3ncc(N)cc3F)nc2C(F)(F)F)cnc1C(=O)Nc1ccc(C(=O)N2CCN(C(=O)C3CCNCC3)CC2)c(Cl)c1 [Example Z71, 5-[1-(5-amino-3-fluoro-2-pyridyl)-3-(trifluoromethyl)pyrazol-4-yl]-N-[3-chloro-4-[4-(piperidine-4-carbonyl)piperazine-1-carbonyl]phenyl]-1-methyl-imidazole-2-carboxamide]"
4,780,"Cn1c(-c2cn(-c3ccc(N)cn3)nc2C(F)(F)F)cnc1C(=O)Nc1ccc(C(=O)NCCOCCNC(=O)[C@@H]2C[C@@H](O)CN2)c(Cl)c1 [Example Z40, 5-[1-(5-amino-2-pyridyl)-3-(trifluoromethyl)pyrazol-4-yl]-N-[3-chloro-4-[2-[2-[[(2S,4R)-4-hydroxyprolyl]amino]ethoxy]ethylcarbamoyl]phenyl]-1-methyl-imidazole-2-carboxamide]"
5,400,"C[C@H]1CNCCN1C(=O)c1ccc(NC(=O)c2ncc(-c3cn(-c4ccc(N)cn4)nc3C(F)(F)F)n2C)cc1Cl [Example Z56, 5-[1-(5-amino-2-pyridyl)-3-(trifluoromethyl)pyrazol-4-yl]-N-[3-chloro-4-[(2S)-2-methylpiperazine-1-carbonyl]phenyl]-1-methyl-imidazole-2-carboxamide]"
6,800,"Cn1c(-c2cn(-c3ccnc(Cl)c3)nc2C(F)(F)F)cnc1C(=O)Nc1ccc(C(=O)N2CCN(C(=O)C3CCNCC3)CC2)c(Cl)c1 [Example Z50, N-[3-chloro-4-(4-isonipecotoylpiperazine-1-carbonyl)phenyl]-5-[1-(2-chloro-4-pyridyl)-3-(trifluoromethyl)pyrazol-4-yl]-1-methyl-imidazole-2-carboxamide]"
7,380,"Cn1c(-c2cn(-c3cc(Cl)c(N)cn3)nc2C(F)(F)F)cnc1C(=O)Nc1ccc(C(=O)N2CCN(C(=O)C3CCNCC3)CC2)c(Cl)c1 [Example Z80, 5-[1-(5-amino-4-chloro-2-pyridyl)-3-(trifluoromethyl)pyrazol-4-yl]-N-[3-chloro-4-[4-(piperidine-4-carbonyl)piperazine-1-carbonyl]phenyl]-1-methyl-imidazole-2-carboxamide]"
8,500,"Cn1c(-c2cn(-c3ccc(N)cn3)nc2C(F)(F)F)cnc1C(=O)Nc1ccc(C(=O)N2CC3CN(C(=O)[C@@H]4C[C@@H](O)CN4)CC3C2)c(Cl)c1 (stereo partly drawn) [Example Z37, 5-[1-(5-amino-2-pyridyl)-3-(trifluoromethyl)pyrazol-4-yl]-N-[3-chloro-4-[5-[(2S,4R)-4-hydroxyprolyl]-1,3,3a,4,6,6a-hexahydropyrrolo[3,4-c]pyrrole-2-carbonyl]phenyl]-1-methyl-imidazole-2-carboxamide]"
9,1290,"Cn1c(-c2cn(-c3ccc(N)cn3)nc2C(F)(F)F)cnc1C(=O)Nc1ccc(C(=O)N2CCNC(C)(C)C2)c(Cl)c1 [Example Z57, 5-[1-(5-amino-2-pyridyl)-3-(trifluoromethyl)pyrazol-4-yl]-N-[3-chloro-4-(3,3-dimethylpiperazine-1-carbonyl)phenyl]-1-methyl-imidazole-2-carboxamide]"

# Same assay, conditions: Acinetobacter baumannii, ATCC17961, 16 h, read-out: ATCC 17961 IC90
row,Structure (SMILES),IC90 [nM]
1,"Cn1c(-c2cn(-c3ccc(N)c(F)n3)nc2C(F)(F)F)cnc1C(=O)Nc1ccc(C(=O)N2CCN(C(=O)C3CCNCC3)CC2)c(Cl)c1 [Example Z72, 5-[1-(5-amino-6-fluoro-2-pyridyl)-3-(trifluoromethyl)pyrazol-4-yl]-N-[3-chloro-4-[4-(piperidine-4-carbonyl)piperazine-1-carbonyl]phenyl]-1-methyl-imidazole-2-carboxamide]",250
